Test results as given in paper PMC7253571, “Cucurbitane-Type Triterpene Glycosides from Momordica charantia and Their α-Glucosidase Inhibitory Activities” (Natural Products and Bioprospecting, 2020).

Target: α-glucosidase
Assay: α-glucosidase inhibition assay (PNPG substrate, absorbance at 405 nm)
Assay type: biochemical
Settings: substrate PNPG 2.5 mM, enzyme 1.0 U/mL, PPBS pH 6.86, 37 °C, triplicate; read-out: α-Glucosidase inhibitory activity IC50
Description: UV spectra were recorded on a UV-2401PC spectrometer (Shimadzu, Kyoto, Japan). Optical rotations were measured in methanol on JASCO P-1020 digital polarimeter (Jasco, Tokyo, Japan). IR spectra were scanned on a Bruker Tensor-27 Fourier transform infrared spectrometer with KBr pellets (Bruker, German). High-resolution (HR) ESI mass spectra data were measured on a Waters API QSTAR Pulsar spectrometer. 1D and 2D NMR spectra were obtained in pyridine-d5 on Bruker Ascend-400, 600 and 800 MHz NMR spectrometers with tetramethylsilane (TMS) as internal standard (Bruker, Zurich, Switzerland). Column chromatography (CC) was performed on macroporous resin (D-101, Tianjin, China), Lichroprep RP-18 (Merck, German), sephadex LH-20 (Pharmacia, USA), silica gel (200–300 mesh, Qingdao, China), and Semi-preparative HPLC was performed on an Agilent 1260 liquid chromatography system equipped with a ZORBAX SB-C18 column (5 μm, 9.4 × 250 mm, 3.0 mL/min) and a DAD detector. Fractions were detected by TLC, and spots were visualized by spraying with 10% H2SO4 in EtOH, followed by heating. α-glucosidase inhibitory activity was evaluated on the basis of the ability of the compounds to decrease glucosidase activity and then inhibit the breaking of glycosidic bonds in p-nitrophenyl-α-D-glucopyranoside (PNPG). Water was purchased from wahaha group co. LTD. Acetonitrile (chromatographic grade) was purchased from OCEANPAK (Sweden). Common organic solvents are industrial grade, used after re-distillation. PNPG was obtained from Sigma Chemical Co. (St. Louis, Mo, USA). α-glucosidase was purchased from Shanghai yuanye biotechnology Co., Ltd. Potassium phosphate buffer solution (PPBS) was obtained from Shanghai Yidian Scientific Instrument Co., Ltd. 96-well plates was purchased from Nest biotechnology co., LTD.
The α-glucosidase inhibition assay was performed according to the method adapted from the literature with slight modifications. α-glucosidase can cut glycosidic bonds in the PNPG to produce 4-nitrophenol (yellow), then measured its absorbance can determine the activity of enzyme. The test samples and ursolic acid (positive control) were dissolved in dimethylsulfoxide (DMSO), and then diluted with PPBS (pH 6.86) to the required concentration. The α-glucosidase (1.0 U/mL) and substrate (PNPG, 2.5 mM) were dissolved in PPBS. Sample wells included 60 μL of PPBS, 10 μL of test substances, 30 μL of enzyme stock solution, and incubated at 37 °C for 10 min. After the pre-incubation phase, 40 μL of PNPG solution was added and the mixture was incubated for another 20 min at 37 °C. Finally, 80 μL Na2CO3 (0.2 M) solution was added to the sample wells to stop the reaction. The absorbance of the reaction mixture was recorded at 405 nm using a microplate reader. All samples were measured in triplicate. The inhibition rate (%) was calculated by the following formula: Inhibition (%) = [1 − (Asample/Acontrol)] × 100.

| Compound | IC50 |
| --- | --- |
| CO[C@H]1C=C2C(CC[C@H](O[C@@H]3O[C@H](CO)[C@@H](O)[C@@H](O)[C@H]3O)C2(C)C)[C@]2(C=O)CC[C@]3(C)[C@@H]([C@H](C)C/C=C/C(C)(C)OC)CC[C@@]3(C)[C@H]12 (stereo partly drawn) [Compound 10, 7β,25-dimethoxycucurbita-5(6),23(E)-dien-19-al 3-O-β-D-allopyranoside] | > 100 µM |
| COC(C=C(C)C)CC(C)C1CCC2(C)C3C=CC45OC(OC)C3(CCC12C)C4CCC(OC1OC(CO)C(O)C(O)C1O)C5(C)C [Compound 2, (19S,23R)-5β,19-epoxy-19,23-dimethoxycucurbita-6,24-dien-3β-ol 3-O-β-D-glucopyranoside] | 63.3 ± 3.04 µM |
| COC(C)(C)/C=C/C[C@@H](C)[C@H]1CC[C@@]2(C)[C@@H]3[C@@H](O[C@@H]4O[C@H](CO)[C@@H](O)[C@H](O)[C@H]4O)C=C4C(CC[C@H](O)C4(C)C)[C@]3(C=O)CC[C@]12C (stereo partly shown) [Compound 9, momordicoside K] | 28.4 ± 2.08 µM |
| COC1OC23C=CC4C1(CCC1(C)C(C(C)CC=CC(C)(C)O)CCC41C)C2CCC(OC1OC(CO)C(O)C(O)C1O)C3(C)C [Compound 5, 19(S)-methoxy-5β,19-epoxycucurbita-6,23-dien-3β,25-diol 3-O-β-D-glucopyranoside] | 59.1 ± 4.67 µM |
| C=C(C)/C=C/C[C@@H](C)[C@H]1CC[C@@]2(C)[C@@H]3C=C[C@@]45O[C@@H](OC)[C@]3(CC[C@]12C)[C@@H]4CC[C@H](O[C@@H]1O[C@H](CO)[C@@H](O)[C@H](O)[C@H]1O)C5(C)C [Compound 7, charantoside I] | 35.1 ± 4.15 µM |
| C=C(C)/C=C/C[C@@H](C)[C@H]1CC[C@@]2(C)[C@@H]3C=C[C@@]45OC[C@]3(CC[C@]12C)[C@@H]4CC[C@H](O[C@@H]1O[C@H](CO)[C@@H](O)[C@H](O)[C@H]1O)C5(C)C [Compound 8, charantoside III] | 36.4 ± 3.03 µM |
| COC(C=C(C)C)CC(C)C1CCC2(C)C3C=CC45OC(OC)C3(CCC12C)C4CCC(OC1OC(CO)C(O)C(O)C1O)C5(C)C [Compound 1, (19S,23R)-5β,19-epoxy-19,23-dimethoxycucurbita-6,24-dien-3β-ol 3-O-β-D-allopyranoside] | > 100 µM |
| CO[C@H]1O[C@]23C=C[C@@H]4[C@@]1(CC[C@]1(C)[C@@H]([C@H](C)C[C@@H](C=C(C)C)OC)CC[C@@]41C)C2CC[C@H](O[C@@H]1O[C@H](CO)[C@@H](O)[C@@H](O)[C@H]1O)C3(C)C (stereo partly drawn) [Compound 3, (19S,23S)-5β,19-epoxy-19,23-dimethoxycucurbita-6,24-dien-3β-ol 3-O-β-D-allopyranoside] | > 100 µM |
| C=C(C)/C=C/C[C@@H](C)[C@H]1CC[C@@]2(C)[C@@H]3C=C[C@@]45O[C@@H](OC)[C@]3(CC[C@]12C)C4CC[C@H](O[C@@H]1O[C@H](CO)[C@@H](O)[C@@H](O)[C@H]1O)C5(C)C (stereo partly drawn) [Compound 6, (19R,23E)-5β,19-epoxy-19-methoxycucurbita-6,23,25-trien-3β-ol 3-O-β-D-allopyranoside] | > 100 µM |
| CC(C)=CC=CC(C)C1CCC2(C)C3C=CC45OCC3(CCC12C)C4CCC(OC1OC(CO)C(O)C(O)C1O)C5(C)C [Compound 4, 5β,19-epoxy-cucurbita-6,22E,24-trien-3β-ol 3-O-β-D-allopyranoside] | > 100 µM |
